Assay results as given in paper PMC3241989, “ADP Regulates SNF1, the Saccharomyces cerevisiae Homolog of AMP-Activated Protein Kinase” (Cell Metabolism, 2011).

What was measured:
[1] = molecular target: T1, SNF1 complex (Snf1(1-633)Gal83(1-417)Snf4(1-322)) (Saccharomyces cerevisiae, UniProt P12904); assay: fluorescence competition against NADH; type: binding; details: phosphorylated SNF1, 20°C, 50 mM Tris pH 8, 100 mM NaCl, 1 mM TCEP
T1 construct: full-length heterotrimer, His-tagged, expressed in E. coli, nickel-Sepharose; phosphorylated on Snf1 Thr210 by CaMKKbeta; with Carbon catabolite-derepressing protein kinase; SNF1 protein kinase subunit beta-3
T1 sequence (P12904 1-322): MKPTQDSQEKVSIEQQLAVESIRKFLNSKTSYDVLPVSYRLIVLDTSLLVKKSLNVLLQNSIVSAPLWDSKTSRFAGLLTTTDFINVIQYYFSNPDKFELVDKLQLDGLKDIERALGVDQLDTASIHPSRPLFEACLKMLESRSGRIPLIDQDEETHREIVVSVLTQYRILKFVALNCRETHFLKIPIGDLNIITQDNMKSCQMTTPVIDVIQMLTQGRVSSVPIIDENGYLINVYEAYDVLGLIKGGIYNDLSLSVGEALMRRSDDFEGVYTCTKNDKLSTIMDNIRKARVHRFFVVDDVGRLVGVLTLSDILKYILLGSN
T1 sequence (P06782 1-633 partner): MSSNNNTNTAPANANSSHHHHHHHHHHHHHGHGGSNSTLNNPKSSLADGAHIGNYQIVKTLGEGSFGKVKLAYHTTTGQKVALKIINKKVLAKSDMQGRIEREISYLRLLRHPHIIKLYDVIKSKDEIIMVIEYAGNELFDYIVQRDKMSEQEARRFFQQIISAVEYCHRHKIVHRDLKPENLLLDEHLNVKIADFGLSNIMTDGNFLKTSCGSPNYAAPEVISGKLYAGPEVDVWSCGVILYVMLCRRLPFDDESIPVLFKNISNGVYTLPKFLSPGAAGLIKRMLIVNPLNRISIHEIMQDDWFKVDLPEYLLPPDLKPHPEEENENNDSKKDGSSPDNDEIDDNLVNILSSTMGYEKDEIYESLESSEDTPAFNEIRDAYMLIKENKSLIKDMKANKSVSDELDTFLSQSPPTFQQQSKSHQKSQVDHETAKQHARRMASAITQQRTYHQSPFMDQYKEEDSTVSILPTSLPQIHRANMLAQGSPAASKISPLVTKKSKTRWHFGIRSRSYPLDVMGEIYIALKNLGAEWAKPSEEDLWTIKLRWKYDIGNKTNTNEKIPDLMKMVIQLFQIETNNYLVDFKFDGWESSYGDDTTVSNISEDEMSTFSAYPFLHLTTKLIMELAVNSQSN
T1 sequence (Q04739 1-417 partner): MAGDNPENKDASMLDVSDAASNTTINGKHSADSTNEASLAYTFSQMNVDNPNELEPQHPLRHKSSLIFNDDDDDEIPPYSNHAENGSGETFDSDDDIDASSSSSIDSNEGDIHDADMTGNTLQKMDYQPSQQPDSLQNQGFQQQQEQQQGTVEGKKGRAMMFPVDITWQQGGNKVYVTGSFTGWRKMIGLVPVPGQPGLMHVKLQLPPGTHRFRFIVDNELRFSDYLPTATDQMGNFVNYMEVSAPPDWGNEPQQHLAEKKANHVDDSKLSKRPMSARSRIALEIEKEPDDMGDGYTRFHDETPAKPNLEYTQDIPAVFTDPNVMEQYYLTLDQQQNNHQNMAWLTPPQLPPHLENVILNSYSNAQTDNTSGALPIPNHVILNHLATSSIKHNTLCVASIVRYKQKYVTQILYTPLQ

[2] = molecular target: T2, regulatory fragment of SNF1 (Snf4(1-322)Sip2(304-415)Snf1(457-633)) (Saccharomyces cerevisiae, UniProt P12904); assay: X-ray crystallography, crystal soak; type: binding; details: site 4 of Snf4
T2 construct: C-terminal domains of Snf1 and Sip2 with full-length Snf4 (1-322; b14 prints 1-332), tricistronic E. coli expression, His-tag removed with PreScission protease; with Carbon catabolite-derepressing protein kinase; SNF1 protein kinase subunit beta-2
T2 sequence (P12904 1-322): T1 sequence (P12904 1-322)
T2 sequence (P34164 304-415 partner): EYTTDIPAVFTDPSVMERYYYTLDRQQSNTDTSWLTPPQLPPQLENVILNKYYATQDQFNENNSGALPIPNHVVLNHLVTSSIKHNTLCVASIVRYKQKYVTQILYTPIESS
T2 sequence (P06782 457-633 partner): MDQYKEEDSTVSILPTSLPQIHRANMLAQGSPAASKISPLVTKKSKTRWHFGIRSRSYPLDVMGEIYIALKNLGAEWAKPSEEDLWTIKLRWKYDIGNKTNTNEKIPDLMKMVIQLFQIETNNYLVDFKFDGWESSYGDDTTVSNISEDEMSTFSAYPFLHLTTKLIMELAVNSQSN

[3] = molecular target: T1, SNF1 complex (Snf1(1-633)Gal83(1-417)Snf4(1-322)); assay: protection of Snf1 phospho-Thr210 against dephosphorylation by PP2C (western blot); type: biochemical; details: read-out: half-maximal effect
[4] = molecular target: T1, SNF1 complex (Snf1(1-633)Gal83(1-417)Snf4(1-322)); assay: fluorescence titration of coumarin nucleotide with SNF1; type: binding; details: read-out: Kd,I
[5] = no Mg, tight site, competitive with NADH, error is SD, read-out: Kd (μM) / Versus C-AXPs

SMILES | Kd [1, 5] [µM] | X-ray crystallography, crystal soak [2] | other results
Nc1ncnc2c1ncn2[C@@H]1O[C@H](COP(=O)(O)O)[C@@H](O)[C@H]1O [AMP] |  | strong, well-resolved electron density for AMP, ADP, and NADH | 
CCN(CC)c1ccc2cc(C(=O)N[C@H]3[C@@H](O)[C@H](n4cnc5c(N)ncnc54)O[C@@H]3COP(=O)(O)OP(=O)(O)O)c(=O)oc2c1 [C-ADP, 3′-(7-diethylaminocoumarin-3-carbonylamino)-3′-deoxyadenosine 5′ diphosphate] |  |  | Kd [4]: 9 µM
NC(=O)C1=CN([C@@H]2O[C@H](COP(=O)(O)OP(=O)(O)OC[C@H]3O[C@@H](n4cnc5c(N)ncnc54)[C@H](O)[C@@H]3O)[C@@H](O)[C@H]2O)C=CC1 [NADH] |  | strong, well-resolved electron density for AMP, ADP, and NADH | 
NC(=O)c1ccc[n+]([C@@H]2O[C@H](COP(=O)(O)OP(=O)(O)OC[C@H]3O[C@@H](n4cnc5c(N)ncnc54)[C@H](O)[C@@H]3O)[C@@H](O)[C@H]2O)c1 [NAD^+] |  |  | Kd ([1]; read-out: Kd): > 250 µM

Continued, in another order:

Kd [1, 5] [µM] | SMILES | X-ray crystallography, crystal soak [2] | other results
72 | Nc1ncnc2c1ncn2[C@@H]1O[C@H](COP(=O)(O)OP(=O)(O)O)[C@@H](O)[C@H]1O [ADP] | strong, well-resolved electron density for AMP, ADP, and NADH | EC50 [3]: ~500 µM
120 | Nc1ncnc2c1ncn2[C@@H]1O[C@H](COP(=O)(O)OP(=O)(O)OP(=O)(O)O)[C@@H](O)[C@H]1O [ATP] |  | 
